Results from patent US11666562B2, “Ilaprazole for inhibiting the release of enveloped viruses from cells” (Northwestern University, priority 2020, dated 2023).
“Also recorded” adds a separate entry of the source. Where two headings read alike, the source gives them in different places.

Columns and labels:
[1] = target: T1, MEK4 (Homo sapiens, UniProt P45985); test: FTS assay against unrelated protein MEK4; type: binding
T1 sequence (P45985 1-399): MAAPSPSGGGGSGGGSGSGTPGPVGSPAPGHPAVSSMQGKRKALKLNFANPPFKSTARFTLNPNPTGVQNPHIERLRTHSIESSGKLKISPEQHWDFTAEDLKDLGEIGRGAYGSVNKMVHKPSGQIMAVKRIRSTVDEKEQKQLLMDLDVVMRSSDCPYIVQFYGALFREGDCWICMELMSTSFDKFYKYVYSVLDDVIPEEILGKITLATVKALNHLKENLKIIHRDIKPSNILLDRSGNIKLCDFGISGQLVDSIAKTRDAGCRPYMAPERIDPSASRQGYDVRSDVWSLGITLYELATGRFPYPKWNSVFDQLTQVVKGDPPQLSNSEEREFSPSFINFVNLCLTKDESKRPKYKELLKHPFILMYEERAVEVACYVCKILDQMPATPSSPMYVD
Excerpt: FIG. 1. Thermal shift data of Tsg101 by lead compound Tenatoprazole (N16). […] (B) Thermal shift data of three human proteins, DHPH, ENO1, and MEK4 not related to Tsg101 by lead compound tenatoprazole. […] (C) The addition of DTT abolishes the Tm shift in the FTS assay, consistent with prazole compounds forming a disulfide bond to Tsg101. Rabe: Rabeprazole, Ila: Ilaprazole, Tenato: tenatoprazole, Panto: pantoprazole, ref: reference.
This specific binding is consistent with a previous NMR structure in which tenatoprazole forms a covalent disulfide bond to Cys73 in the UEV domain of the protein (5). This disulfide bond formation can be prevented by including the reducing agent DTT in the assay (FIG. 1C). The addition of DTT abolished the Tsg101-UEV Tm shift caused by the prazoles. […]
Fluorescence thermal shift (FTS) screening to identify small molecule binding to Tsg101-UEV. […] Discovery of small molecule binding to target protein utilizes the observation that ligand binding affects protein thermal stability, and therefore can be detected through a shift in the protein's thermal denaturation (melting) temperature (Tm). […] A fluorescence dye Sypro-Orange (Invitrogen) was used for assay detection. The dye is excited at 473 nm and has a fluorescence emission at 610 nm. […] Fluorescence was detected on a real-time PCR machine CFX384 (Bio-Rad Laboratories).

[2] = system: HIV-1; test: Release of HIV-1 from transfected 293T cells, p24 in media; type: cell-based; details: 293T cells transfected with pR9-HIV-1Ba-L, read-out: EC50, inhibition of HIV-1 release
Protocol: Effect of Ilaprazole on release of HIV-1 in vitro. To establish the broad-spectrum potential of ilaprazole, we tested whether ilaprazole would inhibit the release of HIV-1 from 293T cells. To this end, cells were transfected with pR9-HIV-1Ba-L plasmid and release of virus into the media fraction was detected by monitoring the capsid (CA) protein (p24) via enzyme linked immunosorbent assay analysis. The drug was tested at concentrations between 0 and 40 μM and the effect of the drug on release of virus assessed (Table 4, shown in FIG. 8, column 2). Ilaprazole was effective at inhibiting the release of HIV-1 from cells with a calculated EC50 of 1 μM or less as described in Materials and Methods.
HIV-1 transfection of 293T cells. 293T cells (American Type Culture Collection) were grown in a 24-well Clear Flat Bottom TC-treated Multiwell Cell Culture Plate using Dulbecco's modified Eagle's medium (Cellgro) containing fetal bovine serum (10%), 100 U/ml penicillin, 100 μg/ml streptomycin, and 292 μg/ml 1-glutamine (Cellgro). […] Virus released from cells was quantified by media-associated p24 determined using fluorescently tagged CA targeting antibody (PerkinElmer) and equivalent amounts of p24 as standards.
Drug potency and cell toxicity. EC50 calculations were determined by using AAT Bioquest's EC50 calculator. […]

Structure (SMILES) | Effect on thermal stability (Tm shift) of MEK4 [1] | EC50 [2] | EC50 ([2]; Human immunodeficiency virus 1, HEK-293T)
COc1ccc2[nH]c([S+]([O-])Cc3ncc(C)c(OC)c3C)nc2n1 (stereo not drawn) [Tenatoprazole] | negligible; also recorded: did not observe a Tm shift |  | 
COc1ccnc(C[S+]([O-])c2nc3ccc(-n4cccc4)cc3[nH]2)c1C (stereo not drawn) [Ilaprazole, 2-[(4-methoxy-3-methylpyridin-2-yl)methylsulfinyl]-6-pyrrol-1-yl-1H-benzimidazole] |  | ≤ 1 µM | 0.8 to 1.2 µM
